These results are taken from patent US20130144068A1, “Methods for the Sterilization of Bendamustine” (Cephalon, Inc., priority 2010, published 2013).

Data set [1] can be described thus: HPLC purity of bendamustine HCl after sterilization. The data set is classed as physicochemical. As to the method:
100 mg each of bendamustine HCl was weighed into a 20 mL tubing vial, a 20 mL amber vial, and a 20 mL clear vial. Rubber stoppers were inserted and aluminum caps crimped on. The vials were passed through a gamma irradiation line and received doses in the range of 29.3 kGy to about 32.3 kGy. Purity and sterility testing was then performed.
100 mg each of bendamustine HCl was weighed into a 20 mL tubing vial, a 20 mL amber vial, and a 20 mL clear vial. Rubber stoppers were inserted and aluminum caps crimped on. The vials were passed through an electron beam irradiation line and received a dose of about 30 kGy. Purity and sterility testing was then performed.
To each 10 mg of bendamustine HCl, sterilized according to the methods described above, was added 10 mL N-methyl-2-pyrrolidone (NMP). A reference standard of bendamustine HCl was prepared in NMP having a concentration of 1 mg/mL. HPLC was performed according to conventional methods.

The conditions of data set [2]: heating; background statement; cited from earlier work.

Turning to `Cl.Cn1c(CCCC(=O)O)nc2cc(N(CCCl)CCCl)ccc21` [bendamustine HCl, Bendamustine hydrochloride], the “HPLC purity (% area)” value in data set [1] (after E-beam irradiation, about 30 kGy, 100 mg solid in amber vial) came to 99.70 % area; in data set [1] (after E-beam irradiation, about 30 kGy, 100 mg solid in clear vial) it was 99.70 % area; in data set [1] (after gamma irradiation, 29.3 kGy to about 32.3 kGy, 100 mg solid in amber vial) it was 99.70 % area; in data set [1] (after gamma irradiation, 29.3 kGy to about 32.3 kGy, 100 mg solid in clear vial) it was 99.64 % area. Moreover, the “Temperature at which the solid chars when heated” value in data set [2] was 160 °C.
